This passage reports IC50 results from US8962608B2, “Cycloalkylnitrile pyrazole carboxamides as janus kinase inhibitors” (Merck Sharp & Dohme Corp., priority 2011, dated 2015).

For assay [1], the target named is JAK2 (recombinant purified GST-tagged catalytic domain) (Homo sapiens (Human), UniProt O60674). Kind of assay: biochemical.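 Note: biochemical JAK kinase assay with HTRF detection.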
Assay [2] concerns the target JAK1 (recombinant purified GST-tagged catalytic domain) (Homo sapiens (Human), UniProt P23458). Kind of assay: biochemical.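 Note: biochemical assay with HTRF read-out.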

JAK1 (recombinant purified GST-tagged catalytic domain), sequence (P23458 875-1153): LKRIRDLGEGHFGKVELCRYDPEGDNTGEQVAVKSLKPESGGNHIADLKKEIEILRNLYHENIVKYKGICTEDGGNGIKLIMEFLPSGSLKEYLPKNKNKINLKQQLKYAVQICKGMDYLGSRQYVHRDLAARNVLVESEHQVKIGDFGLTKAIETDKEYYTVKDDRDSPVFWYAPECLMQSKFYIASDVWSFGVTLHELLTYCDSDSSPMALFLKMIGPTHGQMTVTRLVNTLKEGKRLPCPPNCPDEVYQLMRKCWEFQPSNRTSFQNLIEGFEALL
JAK2 (recombinant purified GST-tagged catalytic domain), sequence (O60674 849-1124): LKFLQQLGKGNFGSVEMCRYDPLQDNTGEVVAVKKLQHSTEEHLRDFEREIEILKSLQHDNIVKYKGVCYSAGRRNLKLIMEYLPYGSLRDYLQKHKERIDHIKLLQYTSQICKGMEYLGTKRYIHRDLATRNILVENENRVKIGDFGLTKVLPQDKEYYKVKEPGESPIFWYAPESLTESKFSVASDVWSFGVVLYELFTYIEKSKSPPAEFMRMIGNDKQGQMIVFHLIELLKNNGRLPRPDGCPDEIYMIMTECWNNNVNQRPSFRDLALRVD

With `C[C@H](N[C@@H]1CC[C@H](n2cc(C(N)=O)c(Nc3ccc(Cl)cc3)n2)[C@@H](C#N)C1)C1CC1` (single isomer, unassigned) [Example 28-98, 3-[(4-chlorophenyl)amino]-1-[(1S,2S,4R or 1R,2R,4S)-2-cyano-4-{[(1S)-1-cyclopropylethyl]amino}cyclo-hexyl]-1H-pyrazole-4-carboxamide], the figures for the IC50 in assay [1] and in assay [2] were 216 nM and 4 nM, respectively.

`N#C[C@H]1C[C@@H](N2CCC2)CC[C@@H]1n1cc(C(N)=O)c(Nc2ccc(Cl)cc2)n1` (single isomer, unassigned) [Example 28-100, 1-[(1S,2S,4S or 1R,2R,4R)-4-azetidin-1-yl-2-cyanocyclohexyl]-3-[(4-chlorophenyl)amino]-1H-pyrazole-4-carboxamide]: the IC50 stood at 41 nM in assay [1] and 0.7 nM in assay [2].

For the compound `N#C[C@H]1C[C@H](N2CCC2)CC[C@@H]1n1cc(C(N)=O)c(Nc2ccc(Cl)cc2)n1` (single isomer, unassigned) [Example 28-109, 1-[(1S,2S,4R or 1R,2R,4S)-4-azetidin-1-yl-2-cyanocyclohexyl]-3-[(4-chlorophenyl)amino]-1H-pyrazole-4-carboxamide], the IC50 was 110 nM in assay [1] and 2 nM in assay [2].

`N#C[C@H]1C[C@H](N2CC(F)C2)CC[C@@H]1n1cc(C(N)=O)c(Nc2ccc(S(=O)(=O)C(F)(F)F)cc2)n1` (single isomer, unassigned) [Example 28-112, 1-[(1S,2S,4R or 1R,2R,4S)-2-cyano-4-(3-fluoroazetidin-1-yl)cyclohexyl]-3-({4-[(trifluoro-methyl)sulfonyl]phenyl}amino)-1H-pyrazole-4-carboxamide]: the values for the IC50 in assay [1] and in assay [2] were 6 nM and 0.45 nM, respectively.

Regarding `N#C[C@H]1C[C@@H](N2CC(F)C2)CC[C@@H]1n1cc(C(N)=O)c(Nc2ccc(S(=O)(=O)C(F)(F)F)cc2)n1` (single isomer, unassigned) [Example 28-113, 1-[(1S,2S,4S or 1R,2R,4R)-2-cyano-4-(3-fluoroazetidin-1-yl)cyclohexyl]-3-({4-[(trifluoro-methyl)sulfonyl]phenyl}amino)-1H-pyrazole-4-carboxamide], the IC50 in assay [1] was 13 nM; in assay [2], 1 nM.

In the case of `CN(CC(F)F)[C@H]1CC[C@H](n2cc(C(N)=O)c(Nc3ccc(S(=O)(=O)C(F)(F)F)cc3)n2)[C@@H](C#N)C1` (single isomer, unassigned) [Example 28-114, 1-{(1S,2S,4S or 1R,2R,4R)-2-cyano-4-[(2,2-difluoroethyl)(methyl)amino]cyclo-hexyl}-3-({4-[(trifluoro-methyl)sulfonyl]phenyl}amino)-1H-pyrazole-4-carboxamide], the IC50 in assay [1] worked out at 29 nM; in assay [2], 3 nM.

As for `C[C@H](N[C@H]1CC[C@H](n2cc(C(N)=O)c(Nc3ccc(Cl)cc3)n2)[C@@H](C#N)C1)C1CC1` (single isomer, unassigned) [Example 28-119, 3-[(4-chlorophenyl)amino]-1-[(1S,2S,4S or 1R,2R,4R)-2-cyano-4-{[(1R)-1-cyclopropylethyl]amino}cyclo-hexyl]-1H-pyrazole-4-carboxamide], the half-inhibitory concentration (IC50) is 85 nM in assay [1] and 1 nM in assay [2].

On to `CC1CN([C@H]2CC[C@H](n3cc(C(N)=O)c(Nc4ccc(C(F)(F)F)cc4)n3)[C@@H](C#N)C2)C1` (single isomer, unassigned) [Example 28-121, 1-[(1S,2S,4S or 1R,2R,4R)-2-cyano-4-(3-methylazetidin-1-yl)cyclohexyl]-3-{[4-(trifluoromethyl)phenyl]amino}-1H-pyrazole-4-carboxamide], for which the figures for the IC50 in assay [1] and in assay [2] were 61 nM and 1 nM, respectively.

For the compound `N#C[C@H]1CC(NCC(F)F)CC[C@@H]1n1cc(C(N)=O)c(Nc2ccc(S(=O)(=O)C(F)F)cc2)n1` (single isomer, unassigned) [Example 28-122, 1-{(1S,2S or 1R,2R)-2-cyano-4-[(2,2-difluoroethyl)amino]cyclohexyl}-3-({4-[(difluoro-methyl)sulfonyl]phenyl}amino)-1H-pyrazole-4-carboxamide], the IC50 in assay [1] amounted to 6 nM; in assay [2], 0.9 nM.

As to `N#C[C@H]1C[C@H](NCc2ccccc2)CC[C@@H]1n1cc(C(N)=O)c(Nc2ccnc(F)c2)n1` (single isomer, unassigned) [Example 28-123, 1-[(1S,2S,4R or 1R,2R,4S)-4-(benzylamino)-2-cyanocyclohexyl]-3-[(2-fluoropyridm-4-yl)amino]-1H-pyrazole-4-carboxamide], the IC50 is 56 nM in assay [1] and 2 nM in assay [2].

With `CN(C)[C@@H]1CC[C@H](n2cc(C(N)=O)c(Nc3ccnc(F)c3)n2)[C@@H](C#N)C1` (single isomer, unassigned) [Example 28-127, 1-[(1S,2S,4R or 1R,2R,4S)-2-cyano-4-(dimethylamino)cyclohexyl]-3-[(2-fluoropyridin-4-yl)amino]-1H-pyrazole-4-carboxamide], the IC50 in assay [1] turned out to be 254 nM; in assay [2], 12 nM.

Consider `CN(C)[C@H]1CC[C@H](n2cc(C(N)=O)c(Nc3ccnc(F)c3)n2)[C@@H](C#N)C1` (single isomer, unassigned) [Example 28-128, 1-[(1S,2S,4S or 1R,2R,4R)-2-cyano-4-(dimethylamino)cyclohexyl]-3-[(2-fluoropyridin-4-yl)amino]-1H-pyrazole-4-carboxamide], for which the IC50 in assay [1] amounted to 110 nM; in assay [2] it was 3 nM.

With `N#C[C@H]1C[C@H](N2CCC2)CC[C@@H]1n1cc(C(N)=O)c(Nc2ccc(C(F)(F)F)cc2)n1` (single isomer, unassigned) [Example 28-131, 1-[(1S,2S,4R or 1R,2R,4S)-4-azetidin-1-yl-2-cyanocyclohexyl]-3-{[4-(trifluoromethyl)phenyl]amino}-1H-pyrazole-4-carboxamide], the IC50 in assay [1] stood at 51 nM; in assay [2], 0.9 nM.

As to `N#C[C@H]1C[C@@H](N2CC3(CCC3)C2)CC[C@@H]1n1cc(C(N)=O)c(Nc2ccnc(F)c2)n1` (single isomer, unassigned) [Example 28-133, 1-[(1S,2S,4S or 1R,2R,4R)-4-(2-azaspiro[3.3]hept-2-yl)-2-cyanocyclohexyl]-3-[(2-fluoropyridin-4-yl)amino]-1H-pyrazole-4-carboxamide], the results for the IC50 in assay [1] and in assay [2] were 36 nM and 0.5 nM, respectively.

With `CN(C)[C@H]1CC[C@H](n2cc(C(N)=O)c(Nc3ccccc3)n2)[C@@H](C#N)C1` (single isomer, unassigned) [Example 28-135, 1-[(1S,2S,4S or 1R,2R,4R)-2-cyano-4-(dimethylamino)cyclohexyl]-3-(phenylamino)-1H-pyrazole-4-carboxamide], the IC50 was 32 nM in assay [1] and 0.65 nM in assay [2].

Consider `CC1(C)CN([C@H]2CC[C@H](n3cc(C(N)=O)c(Nc4ccccc4)n3)[C@@H](C#N)C2)C1` (single isomer, unassigned) [Example 28-138, 1-[(1S,2S,4S or 1R,2R,4R)-2-cyano-4-(3,3-dimethylazetidin-1-yl)cyclohexyl]-3-(phenylamino)-1H-pyrazole-4-carboxamide], for which the IC50 in assay [1] is 40 nM; in assay [2], 0.9 nM.

Turning to `CC1CN([C@H]2CC[C@H](n3cc(C(N)=O)c(Nc4ccccc4)n3)[C@@H](C#N)C2)C1` (single isomer, unassigned) [Example 28-141, 1-[(1S,2S,4S or 1R,2R,4R)-2-cyano-4-(3-methylazetidin-1-yl)cyclohexyl]-3-(phenylamino)-1H-pyrazole-4-carboxamide], the IC50 was 44 nM in assay [1] and 1 nM in assay [2].

For the compound `N#C[C@H]1C[C@H](N2CC3(CCC3)C2)CC[C@@H]1n1cc(C(N)=O)c(Nc2ccnc(F)c2)n1` (single isomer, unassigned) [Example 28-143, 1-[(1S,2S,4R or 1R,2R,4S)-4-(2-azaspiro[3.3]hept-2-yl)-2-cyanocyclohexyl]-3-[(2-fluoropyridin-4-yl)amino]-1H-pyrazole-4-carboxamide], the IC50 was found to be 122 nM in assay [1] and 1 nM in assay [2].

On to `N#C[C@H]1C[C@@H](N2CCC23COC3)CC[C@@H]1n1cc(C(N)=O)c(Nc2ccc(Cl)cc2)n1` (single isomer, unassigned) [Example 28-146, 3-[(4-chlorophenyl)amino]-1-[(1S,2S,4S or 1R,2R,4R)-2-cyano-4-(6-oxa-1-azaspiro[3.3]hept-1-yl)cyclohexyl]-1H-pyrazole-4-carboxamide], for which the IC50 stood at 4 nM in assay [1] and 1 nM in assay [2].

Turning to `COC1CN(C2CC[C@H](n3cc(C(N)=O)c(Nc4ccc(S(=O)(=O)C(F)(F)F)cc4)n3)[C@@H](C#N)C2)C1` (single isomer, unassigned) [Example 28-147, 1-[(1S,2S or 1R,2R)-2-cyano-4-(3-methoxyazetidin-1-yl)cyclohexyl]-3-({4-[(trifluoro-methyl)sulfonyl]phenyl}amino)-1H-pyrazole-4-carboxamide], the figures for the IC50 in assay [1] and in assay [2] were 5 nM and 0.45 nM, respectively.

As to `CS(=O)(=O)CCNC1CC[C@H](n2cc(C(N)=O)c(Nc3ccc(S(=O)(=O)C(F)(F)F)cc3)n2)[C@@H](C#N)C1` (single isomer, unassigned) [Example 28-148, 1-[(1S,2S or 1R,2R)-2-cyano-4-{[2-(methylsulfonyl)eth-yl]amino}cyclohexyl]-3-({4-[(trifluoromethyl)sulfon-yl]phenyl}amino)-1H-pyrazole-4-carboxamide], the IC50 turned out to be 4 nM in assay [1] and 0.35 nM in assay [2].

Take `COCCN(C)[C@H]1CC[C@H](n2cc(C(N)=O)c(Nc3ccc(S(=O)(=O)C(F)(F)F)cc3)n2)[C@@H](C#N)C1` (single isomer, unassigned) [Example 28-149, 1-{(1S,2S,4S or 1R,2R,4R)-2-cyano-4-[(2-methoxy-ethyl)(methyl)amino]cyclohexyl}-3-({4-[(trifluoromethyl)sulfonyl]phen-yl}amino)-1H-pyrazole-4-carboxamide]: the IC50 in assay [1] is 17 nM; in assay [2], 0.6 nM.

In general, IC50 refers to the midpoint of a concentration-inhibition curve.
